Measurements published in patent publication US20110071180A1, “SUB-TYPE SELECTIVE AMIDES OF DIAZABICYCLOALKANES” (Targacept, Inc., priority 2008, published 2011).
Read-outs that look alike come from different tables or passages of the source.

Tests used:
human α4β2 nAChR subtype = biological target: T1, human α4β2 nAChR subtype (Homo sapiens, UniProt P17787+P43681); experiment: Radioligand binding, [3H]nicotine, membranes from SH-EP1/human α4β2 clonal cells; details: [3H]nicotine 5 nM, SH-EP1/human α4β2 cell membranes
T1 construct: expressed in transfected cells; host or cells: SH-EP1 clonal cells expressing human α4β2
Method: Preparation of membranes from SH-EP1/human α4β2 clonal cells: Cell pellets from 40 150 mm culture dishes were pooled, and homogenized by Polytron (Kinematica GmbH, Switzerland) in 20 milliliters of ice-cold preparative buffer. The homogenate was centrifuged at 48,000 g for 20 minutes at 4° C. The resulting pellet was re-suspended in 20 mL of ice-cold preparative buffer and stored at −20° C.
(§1) On the day of the assay, the frozen membranes were thawed and spun at 48,000×g for 20 min. The supernatant was decanted and discarded. The pellet was resuspended in Dulbecco's phosphate buffered saline (PBS, Life Technologies) pH 7.4 and homogenized with the Polytron for 6 seconds. Protein concentrations were determined using a Pierce BCA Protein Assay Kit, with bovine serum albumin as the standard (Pierce Chemical Company, Rockford, Ill.).
(§2) Membrane preparations (approximately 50 μg for human and 200-300 μg protein for rat α4β2) were incubated in PBS (50 μL and 100 μL respectively) in the presence of competitor compound (0.01 nM to 100 μM) and 5 nM [^3H]nicotine for 2-3 hours on ice. Incubation was terminated by rapid filtration on a multi-manifold tissue harvester (Brandel, Gaithersburg, Md.) using GF/B filters presoaked in 0.33% polyethyleneimine (w/v) to reduce non-specific binding. Tissue was rinsed 3 times in PBS, pH 7.4. Scintillation fluid was added to filters containing the washed tissue and allowed to equilibrate. Filters were then counted to determine radioactivity bound to the membranes by liquid scintillation counting (2200CA Tri-Carb LSC, Packard Instruments, 50% efficiency or Wallac Trilux 1450 MicroBeta, 40% efficiency, Perkin Elmer).
(§3) Data were expressed as disintegrations per minute (DPMs). Within each assay, each point had 2-3 replicates. The replicates for each point were averaged and plotted against the log of the drug concentration. IC50, which is the concentration of the compound that produces 50% inhibition of binding, was determined by least squares non-linear regression. Ki values were calculated using the Cheng-Prussof equation (1973): […]

α7 nAChR subtype = biological target: T2, α7 nAChR subtype (Rattus norvegicus, UniProt Q05941); experiment: Radioligand binding, [3H]MLA, rat hippocampus membranes; details: for inhibition at 5 µM: read-out: α7 high through-put screening (HTS) result
T2 construct: The hippocampus was removed and placed in 10 volumes (weight:volume) of ice-cold preparative buffer; from tissue; host or cells: rat hippocampus membranes (female Sprague-Dawley)
Method: Rats (female, Sprague-Dawley), weighing 150-250 g, were maintained on a 12 h light/dark cycle and were allowed free access to water and food supplied by PMI Nutrition International, Inc. Animals were anesthetized with 70% CO2, then decapitated. Brains were removed and placed on an ice-cold platform. The hippocampus was removed and placed in 10 volumes (weight:volume) of ice-cold preparative buffer (137 mM NaCl, 10.7 mM KCl, 5.8 mM KH2PO4, 8 mM Na2HPO4, 20 mM HEPES (free acid), 5 mM iodoacetamide, 1.6 mM EDTA, pH 7.4); PMSF, dissolved in methanol to a final concentration of 100 μM, was added and the tissue suspension was homogenized by Polytron. The homogenate was centrifuged at 18,000×g for 20 min at 4° C. and the resulting pellet was re-suspended in 10 volumes of ice-cold water. After 60 min incubation on ice, a new pellet was collected by centrifugation at 18,000×g for 20 min at 4° C. The final pellet was re-suspended in 10 volumes of buffer and stored at −20° C. On the day of the assay, tissue was thawed, centrifuged at 18,000×g for 20 min, and then re-suspended in ice-cold PBS (Dulbecco's Phosphate Buffered Saline, 138 mM NaCl, 2.67 mM KCl, 1.47 mM KH2PO4, 8.1 mM Na2HPO4, 0.9 mM CaCl2, 0.5 mM MgCl2, Invitrogen/Gibco, pH 7.4) to a final concentration of approximately 2 mg protein/mL. Protein was determined by the method of Lowry et al., J. Biol. Chem. 193: 265 (1951), using bovine serum albumin as the standard.
The binding of [^3H]MLA was measured using a modification of the methods of Davies et al., Neuropharmacol. 38: 679 (1999). [^3H]MLA (Specific Activity=25-35 Ci/mmol) was obtained from Tocris. The binding of [^3H]MLA was determined using a 2 h incubation at 21° C. Incubations were conducted in 48-well micro-titre plates and contained about 200 μg of protein per well in a final incubation volume of 300 μL. The incubation buffer was PBS and the final concentration of [^3H]MLA was 5 nM. The binding reaction was terminated by filtration of the protein containing bound ligand onto glass fiber filters (GF/B, Brandel) using a Brandel Tissue Harvester at room temperature. Filters were soaked in de-ionized water containing 0.33% polyethyleneimine to reduce non-specific binding. Each filter was washed with PBS (3×1 mL) at room temperature. Non-specific binding was determined by inclusion of 50 μM non-radioactive MLA in selected wells.
The inhibition of [^3H]MLA binding by test compounds was determined by including seven different concentrations of the test compound in selected wells. Each concentration was replicated in triplicate. IC50 values were estimated as the concentration of compound that inhibited 50 percent of specific [^3H]MLA binding. Inhibition constants (Ki values), reported in nM, were calculated from the IC50 values using the method of Cheng et al., Biochem. Pharmacol. 22: 3099-3108 (1973).

rat α4β2 nAChR subtype [1] = biological target: T3, rat α4β2 nAChR subtype (Rattus norvegicus, UniProt P09483+P12390); experiment: Radioligand binding, [3H]nicotine, rat cortex membranes; details: 5 μM compound, 5 nM 3H-nicotine; Ki not determined
T3 construct: The cerebral cortex was removed and placed in 20 volumes (weight:volume) of ice-cold preparative buffer; from tissue; host or cells: rat cerebral cortex membranes (female Sprague-Dawley)

rat α4β2 nAChR subtype [2] = biological target: T3, rat α4β2 nAChR subtype; experiment: as above; details: [3H]nicotine 5 nM
Method: Preparation of Membranes from Rat Cortex: Rats (Female, Sprague-Dawley), weighing 150-250 g, were maintained on a 12 h light/dark cycle and were allowed free access to water and food supplied by PMI Nutrition International, Inc. Animals were anesthetized with 70% CO2, and then decapitated. Brains were removed and placed on an ice-cold platform. The cerebral cortex was removed and placed in 20 volumes (weight:volume) of ice-cold preparative buffer (137 mM NaCl, 10.7 mM KCl, 5.8 mM KH2PO4, 8 mM Na2HPO4, 20 mM HEPES (free acid), 5 mM iodoacetamide, 1.6 mM EDTA, pH 7.4); PMSF, dissolved in methanol to a final concentration of 100 μM, was added and the suspension was homogenized by Polytron. The homogenate was centrifuged at 18,000×g for 20 min at 4° C. and the resulting pellet was re-suspended in 20 volumes of ice-cold water. After 60 min incubation on ice, a new pellet was collected by centrifugation at 18,000×g for 20 min at 4° C. The final pellet was re-suspended in 10 volumes of buffer and stored at −20° C.
as §1, §2, §3

rats = experiment: Novel object recognition (NOR) task; type: in vivo, rat; details: oral, 0.3 mg/kg
Method: FIG. 1 is a chart showing the results of a study on object recognition in rats treated orally with N-(propanoyl)-3,7-diazabicyclo[3.3.0]octane. The results are shown as a function of recognition index (%) versus dose (mg/kg). N-(Propanoyl)-3,7-diazabicyclo[3.3.0]octane is active orally in rats at 0.3 mg/kg in novel object recognition (NOR) task.
The novel object recognition (NOR) task was performed in accord with the description of Ennaceur and Delacour Behav. Brain Res. 100: 85-92 (1988).
Certain exemplified compounds were assessed in the NOR task. Thus, N-(propanoyl)-3,7-diazabicyclo[3.3.0]octane (Compound 10-16, Table 1) was active in NOR in rats, at […]. This provides evidence of the efficacy (and potency) of the compounds of the present invention in treating cognitive deficits, attentional disorders and dementias, and the potential of these compounds for human therapy.

[3] = [3H]MLA 5 nM, rat hippocampus membranes, read-out: α7 Ki

T2 sequence (Q05941 23-502): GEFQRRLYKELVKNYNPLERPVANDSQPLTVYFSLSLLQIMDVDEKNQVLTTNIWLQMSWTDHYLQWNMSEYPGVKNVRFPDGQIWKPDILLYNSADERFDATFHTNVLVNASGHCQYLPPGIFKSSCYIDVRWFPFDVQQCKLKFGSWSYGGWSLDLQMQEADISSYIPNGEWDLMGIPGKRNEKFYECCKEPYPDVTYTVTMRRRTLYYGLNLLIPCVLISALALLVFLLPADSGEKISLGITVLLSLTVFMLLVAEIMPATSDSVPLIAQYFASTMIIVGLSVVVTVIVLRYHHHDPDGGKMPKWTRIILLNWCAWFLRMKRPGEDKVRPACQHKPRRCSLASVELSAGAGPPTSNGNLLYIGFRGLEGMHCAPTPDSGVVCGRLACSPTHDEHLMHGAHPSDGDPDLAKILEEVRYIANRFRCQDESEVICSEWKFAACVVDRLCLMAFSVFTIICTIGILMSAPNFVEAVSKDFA
T1 sequence (P43681 29-627 limits assumed): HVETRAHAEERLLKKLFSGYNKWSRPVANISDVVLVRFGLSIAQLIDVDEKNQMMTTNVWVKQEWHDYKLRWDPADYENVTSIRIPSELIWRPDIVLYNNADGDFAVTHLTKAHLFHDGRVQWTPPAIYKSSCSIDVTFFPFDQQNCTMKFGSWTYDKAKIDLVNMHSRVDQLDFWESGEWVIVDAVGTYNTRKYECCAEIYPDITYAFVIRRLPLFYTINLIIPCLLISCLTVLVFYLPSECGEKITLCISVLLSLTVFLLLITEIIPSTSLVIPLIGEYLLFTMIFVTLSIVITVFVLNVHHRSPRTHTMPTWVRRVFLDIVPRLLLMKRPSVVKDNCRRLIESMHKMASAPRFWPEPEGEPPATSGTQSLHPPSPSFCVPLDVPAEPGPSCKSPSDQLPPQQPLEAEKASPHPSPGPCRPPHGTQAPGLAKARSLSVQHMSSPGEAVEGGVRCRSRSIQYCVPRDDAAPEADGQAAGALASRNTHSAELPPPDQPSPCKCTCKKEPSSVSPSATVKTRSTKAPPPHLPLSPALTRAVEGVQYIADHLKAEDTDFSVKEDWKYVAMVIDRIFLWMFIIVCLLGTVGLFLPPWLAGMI
T1 sequence (P17787 26-502): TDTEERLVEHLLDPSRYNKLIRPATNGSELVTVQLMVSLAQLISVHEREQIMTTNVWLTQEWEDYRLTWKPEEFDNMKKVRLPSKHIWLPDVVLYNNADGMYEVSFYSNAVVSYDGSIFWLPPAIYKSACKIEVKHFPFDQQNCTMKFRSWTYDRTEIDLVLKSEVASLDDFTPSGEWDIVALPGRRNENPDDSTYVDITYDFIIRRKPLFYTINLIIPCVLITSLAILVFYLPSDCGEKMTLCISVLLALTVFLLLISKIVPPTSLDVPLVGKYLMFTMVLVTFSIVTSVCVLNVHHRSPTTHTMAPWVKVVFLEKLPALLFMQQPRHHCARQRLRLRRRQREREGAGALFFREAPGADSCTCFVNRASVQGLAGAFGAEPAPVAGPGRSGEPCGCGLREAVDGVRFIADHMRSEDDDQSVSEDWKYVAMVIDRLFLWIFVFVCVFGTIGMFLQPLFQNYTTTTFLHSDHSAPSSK
T3 sequence (P09483 31-630): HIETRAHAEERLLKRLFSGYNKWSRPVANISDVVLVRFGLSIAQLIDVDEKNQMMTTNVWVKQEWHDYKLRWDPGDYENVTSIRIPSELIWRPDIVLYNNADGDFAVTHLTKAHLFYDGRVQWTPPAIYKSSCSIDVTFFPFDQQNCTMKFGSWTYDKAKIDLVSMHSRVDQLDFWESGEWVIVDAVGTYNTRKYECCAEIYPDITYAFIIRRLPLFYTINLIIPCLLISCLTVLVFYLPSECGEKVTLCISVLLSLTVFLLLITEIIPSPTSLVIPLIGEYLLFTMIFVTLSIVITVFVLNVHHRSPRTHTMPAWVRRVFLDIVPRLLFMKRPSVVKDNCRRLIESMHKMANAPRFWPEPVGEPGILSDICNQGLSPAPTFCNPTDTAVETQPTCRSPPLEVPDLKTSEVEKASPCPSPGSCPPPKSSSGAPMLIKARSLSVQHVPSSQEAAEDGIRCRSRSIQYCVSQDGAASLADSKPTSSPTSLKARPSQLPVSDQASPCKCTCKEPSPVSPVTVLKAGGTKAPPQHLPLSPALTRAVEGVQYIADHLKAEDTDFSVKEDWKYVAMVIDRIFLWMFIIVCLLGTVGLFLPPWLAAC
T3 sequence (P12390 25-500): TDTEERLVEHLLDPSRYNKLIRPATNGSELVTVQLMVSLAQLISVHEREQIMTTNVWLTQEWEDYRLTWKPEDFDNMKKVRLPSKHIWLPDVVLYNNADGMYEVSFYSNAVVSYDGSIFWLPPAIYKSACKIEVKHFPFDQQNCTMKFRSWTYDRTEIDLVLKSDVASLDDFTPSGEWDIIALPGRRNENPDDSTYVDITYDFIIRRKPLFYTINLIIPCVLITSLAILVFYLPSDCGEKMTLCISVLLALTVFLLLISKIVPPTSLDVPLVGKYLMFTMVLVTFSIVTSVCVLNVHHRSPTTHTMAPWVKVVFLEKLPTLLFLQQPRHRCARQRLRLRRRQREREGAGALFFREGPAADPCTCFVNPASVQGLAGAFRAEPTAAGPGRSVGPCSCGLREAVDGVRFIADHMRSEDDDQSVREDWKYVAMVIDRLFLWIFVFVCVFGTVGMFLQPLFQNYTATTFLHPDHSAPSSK

Structure (SMILES)	Ki (human α4β2 nAChR subtype)	inhibition at 5 µM (α7 nAChR subtype)	Rat α4β2 high through-put screening (HTS) result (rat α4β2 nAChR subtype [1])	Ki (rat α4β2 nAChR subtype [2])	Ki (α7 nAChR subtype; [3])	Ki (α7 nAChR subtype; α7 Ki)	activity in novel object recognition (NOR) task (recognition index) (rats)
CC1(C)CC(C(=O)N2CC3CNCC3C2)C1 (stereo not shown) [Example 10-50]	129 nM	< 50%	ND; failed HTS (the compound failed to inhibit, at 5 μM concentration, the binding of 5 nM ^3H-nicotine by at least 50%)				
COC(C(=O)N1CC2CNCC(C2)C1)c1ccccc1 (stereo not shown) [Example 10-65]	386 nM	< 50%	ND; failed HTS (the compound failed to inhibit, at 5 μM concentration, the binding of 5 nM ^3H-nicotine by at least 50%)				
O=C(C1C2CCCCC21)N1CC2CNCC(C2)C1 (stereo not shown) [Example 10-97]	64.1 nM	< 50%	ND; failed HTS (the compound failed to inhibit, at 5 μM concentration, the binding of 5 nM ^3H-nicotine by at least 50%)				
O=C(C(O)c1ccccc1)N1CC2CNCC(C2)C1 (stereo not shown) [Example 10-64]	1530 nM	< 50%	ND; failed HTS (the compound failed to inhibit, at 5 μM concentration, the binding of 5 nM ^3H-nicotine by at least 50%)				
O=C(Cc1cccnc1)N1CC2CNCC2C1 (stereo not shown) [Example 10-6]	489 nM	< 50%	ND; failed HTS (the compound failed to inhibit, at 5 μM concentration, the binding of 5 nM ^3H-nicotine by at least 50%)				
O=C(C1CC(F)(F)C1)N1CC2CNCC2C1 (stereo not shown) [Example 10-54]	5.7 nM	< 50%		20.3 nM			
CC(C)(C)C(=O)N1CC2CNCC2C1 (stereo not shown) [Example 10-32]	8.1 nM	< 50%		15.8 nM			
COCC(=O)N1CC2CNCC2C1 (stereo not shown) [Example 10-4]	323 nM			137 nM	12400 nM		
O=C(C1=CCCC1)N1CC2CNCC(C2)C1 [Example 10-58]	468 nM	< 50%		177 nM			
O=C([C@@H]1C[C@@H]1F)N1CC2CNCC(C2)C1 [Example 10-89]	1 nM			0.8 nM		73.4 nM	
O=C(C1CC=CC1)N1CC2CNCC(C2)C1 [Example 10-77]	12.5 nM			25.6 nM	54 nM		
CC1(C(=O)N2CC3CNCC3C2)CC1 (stereo not shown) [Example 10-20]	53.9 nM	< 50%		136 nM			
CC(C)C(=O)N1CC2CNCC2C1 (stereo not shown) [Example 10-31]	28.6 nM	< 50%		56 nM			
O=C([C@H]1C[C@@H]1F)N1CC2CNCC2C1 (stereo partly shown) [Example 10-29]	5.9 nM	< 50%		21.3 nM			
O=C([C@@H]1C[C@H]1F)N1CC2CNCC(C2)C1 [Example 10-88]	1.4 nM			1.8 nM		243 nM	
C/C=C/CC(=O)N1CC2CNCC(C2)C1 [Example 10-66]	16.7 nM	< 50%		30.1 nM			
CC1CC1C(=O)N1CC2CNCC2C1 (stereo not shown) [Example 10-21]	4.2 nM	< 50%		4.1 nM			
C[C@@H]1C(C(=O)N2CC3CNCC3C2)[C@@H]1C (stereo partly shown) [Example 10-51]	44.6 nM			17.6 nM	4790 nM		
O=C([C@H]1C[C@H]1F)N1CC2CNCC2C1 (stereo partly shown) [Example 10-38]	30 nM	< 50%		9.7 nM			
O=C([C@H]1C[C@H]1F)N1CC2CNCC2C1 (stereo partly shown) [Example 10-28]	2.9 nM	< 50%		10 nM			
CCC(=O)N1CC2CNCC2C1 (stereo not shown) [Example 10-16, N-(propanoyl)-3,7-diazabicyclo[3.3.0]octane]							active
O=C([C@@H]1C[C@H]1F)N1CC2CNCC2C1 (stereo partly shown) [Example 10-37]	4.9 nM	< 50%		12.2 nM			
O=C([C@@H]1CC2C=CC1C2)N1CC2CNCC2C1 (stereo partly shown) [Example 10-44]	3.4 nM	< 50%		9.3 nM			
O=C(C1CCCC1)N1CC2CNCC(C2)C1 [Example 10-86]	20.2 nM			26.6 nM	211 nM		
CC(C)C(=O)N1CC2CNCC(C2)C1 [Example 10-81]	44.4 nM			102 nM	645 nM		
